{"source": "patent US5336762A", "about": "“Polychelating agents for image and spectral enhancement (and spectral shift)” (priority 1991, dated 1994)", "key": {"[1]": {"assay": "In vitro T1 relaxation of water protons (IBM PC20 Minispectrometer, 20 MHz)", "assay_type": "physicochemical", "text": "Fe^+3 as the dextran-iron oxide (in which the iron is complexed loosely to the hydroxyl groups of dextran), was obtained as \"Proferdex\" (20% iron, w/w) (Fisons Pharmaceuticals) and tested, both before and after extensive dialysis (to remove loosely bound iron), for NMR T1-enhancing activity in vitro (using an IBM PC20 Minispectrometer, 20 MHz)."}, "[2]": {"conditions": "cited from earlier work"}, "blood in heart chambers": {"tested_on": "blood in heart chambers", "assay": "T1-weighted blood flow images of cardiac chambers", "assay_type": "in vivo, Sprague-Dawley rats", "conditions": "comparable Gd dose", "experimental": "Gd:DTPA-dextran microspheres (at 0.3 mmoles Gd/kg) were injected i.v. at time zero into Sprague-Dawley rats and images were obtained immediately and serially each 5 minutes×4 (spin-echo, multi-echo, TR=0.5 and 1.5)."}, "[3]": {"tested_on": "liver, kidney, bone marrow", "assay": "In vivo MR imaging of normal tissues, Sprague-Dawley rats (0.35 Tesla)", "text": "(§2) Sprague-Dawley rats were imaged using a 0.35-Tesla, Diasonics clinical MR imaging system and a 30-cm rf coil. Three clinically relevant pulse sequences were used: 1) spin-echo with a TR of 0.5 seconds (for T1-weighted images), 2) inversion-recovery (IR) (for T1-weighted images), and 3) spin-echo with a TR of 2.0 seconds (for T2-weighted images). Diasonics software was used to calculate the area-averaged tissue intensities before and after injection of contrast agents. Dual pulse sequences (spin-echo, with TR's of 0.5 and 1.5 seconds or 1.0 and 2.0 seconds) were also used to calculate the in vivo T1 relaxation times. At the conclusion of imaging, the liver, spleen and kidneys were excised and their T1 (IR) and T2 (Carr-Purcell-Meiboom-Gill) relaxation times were determined at 37° C., using an IBM PC20 Minispectrometer. For these in vitro experiments, uninjected rats were used in place of preinjection controls.\nPost-contrast images were obtained serially beginning immediately after the i.v. injection of contrast agents and continuing for several hours thereafter."}, "liver, kidney": {"tested_on": "liver, kidney", "assay": "Proton T1 relaxation times in mouse organs (Example 18a)", "assay_type": "in vivo, CBA mice", "conditions": "30 min; Gd dose 0.23 mmol/kg (DEAE forms), 0.47 (dimeglumine)", "method": "Test materials were injected i.v. into 25 gm CBA mice. At 30 min the mice were sacrificed by decapitation (exsanguination) and the excised livers and kidneys assessed for changes in proton T1 relaxation times (20 MHz; IR pulse sequence). Doses of test materials were made equivalent based on in vitro potency (ID50 analysis)."}, "human brain tumors": {"tested_on": "human brain tumors", "conditions": "preliminary studies; cited from earlier work"}, "[4]": {"conditions": "cited from earlier work", "remark": "listed apart in the source"}, "liver, spleen, kidney": {"tested_on": "liver, spleen, kidney", "assay": "In vitro T1 of excised rat organs (Example 18b)", "assay_type": "in vivo, Sprague-Dawley rats", "conditions": "same doses", "method": "(§1) Test materials were injected intravenously into 500 gm Sprague-Dawley rats. At approximately 30 minutes, the rats were placed in the head coil of a 0.35 Tesla clinical imaging device (Diasonics Corp.), and T1-weighted images (using both a spin-echo pulse sequence at TR's of 0.5, 1.5 and 2.0, and an inversion recovery sequence) were obtained on image slices of 0.5 cm thickness taken through the liver and kidneys. T1 relaxation times were determined from the TR=0.5 and 2.0 data using area-averaging of signal intensities and a proprietary software program for calculations. At the completion of imaging, the rats were sacrificed by decapitation (exsanguination). Their livers, kidneys and spleens were excised, tested for in vitro correlations with the in vivo changes in proton T1 relaxation times and then placed in buffered formalin fixative for histopathologic evaluation."}, "[5]": {"tested_on": "7777-strain Morris hepatoma", "assay": "MR imaging of Morris hepatoma (7777) in Buffalo rats", "assay_type": "in vivo, Buffalo-strain rats", "conditions": "after injection", "experimental": "After two to three weeks the local tumors had reached an average diameter of 0.5 and 1.0 cm. The rats were then imaged both before and after i.v. injections of Gd-DTPA or microsphere Gd-DTPA. MR imaging was performed in a 30cm rf coil with a 0.35 Tesla, Diasonics clinical MRI system (as described above). Post-contrast images were obtained serially beginning immediately after injection and continuing for several hours thereafter."}, "liver": {"tested_on": "liver", "assay": "Liver T1 decrease in mice", "assay_type": "in vivo", "conditions": "usual 30-minute imaging interval; 0.10 to 0.30 mmoles/kg"}, "spleen": {"tested_on": "spleen", "assay": "T1 of freshly excised rat spleens", "assay_type": "in vivo, Sprague-Dawley rats", "conditions": "30 min post vs. pre", "text": "as §2"}, "BRO human melanoma": {"tested_on": "BRO human melanoma", "assay": "MR imaging of human BRO melanoma in nude mice", "assay_type": "in vivo, Swiss-strain nude mice bearing human melanoma", "method": "These studies are performed using the rapidly proliferating, amelanotic, BRO human melanoma grown to a weight of 2.0-6.0 gms in the axillary soft tissues of Swiss-strain nude mice. The amelanotic nature of the tumor avoids any potential for alteration of unenhanced tissue-relaxation times by naturally occurring paramagnetic substances which have been described for pigmented melanomas. The axillary location of tumors allows imaging of the tumor and liver in adjacent slices. This shortens the imaging time for each group of mice and provides maximal anatomic separation of tumors from the higher-intensity kidneys and bladder. MR imaging is performed on a Diasonics 0.35T instrument, using a 30-cm rf coil, and a T1-weighted spin-echo pulse sequence (TR 500, TE 40). Pentobarbital is used for animal anesthesia in order to avoid drug modulation of image intensities. T1 relaxation were performed on the freshly excised organs. In general, these T1's decreased in proportion to increased image intensities. […] The new soluble polymeric agent had the following advantages: […]"}, "[6]": {"tested_on": "liver, kidney, bone marrow", "assay": "In vivo MR imaging T1 in rats (Example 18b)", "parameters": "species or system Sprague-Dawley rats", "conditions": "Gd 0.30 (soluble), 0.15 (microspheres), 0.30 (dimeglumine) mmol/kg; ~30 min", "method": "as §1"}, "[7]": {"conditions": "30 min post vs. pre, Gd 0.3 mmoles/kg dimeglumine, 0.009 mmoles/kg microspheres"}}, "data": [{"smiles": "[Cl][Gd]([Cl])[Cl]", "note": "[GdCl3]", "values": [{"measurement": "R1 (in vitro T1 relaxivity)", "setting": "[1]; physiologic saline", "result": 3.03, "unit": "mM⁻¹ s⁻¹"}]}, {"smiles": "O=C(O)CN1CCN(CC(=O)O)CCN(CC(=O)O)CCN(CC(=O)O)CC1", "note": "[DOTA, 1,4,7,10-tetraazacyclododecane-N,N',N\"-tetraacetic acid]", "values": [{"measurement": "relaxivity, times that of Gd-DTPA", "setting": "[2]; wide range of Larmor frequencies", "result": "approximately 2 times"}]}, {"smiles": "CNC[C@H](O)[C@@H](O)[C@H](O)[C@H](O)CO.CNC[C@H](O)[C@@H](O)[C@H](O)[C@H](O)CO.O=C([O-])CN(CCN(CC(=O)[O-])CC(=O)O)CCN(CC(=O)[O-])CC(=O)O.[Gd+3]", "note": "[Gd:DTPA dimeglumine]", "values": [{"measurement": "enhancement of blood flow images", "setting": "blood in heart chambers", "result": "almost completely ineffective"}, {"measurement": "relaxivity at higher radio frequencies", "setting": "[2]; typically 15 MHz", "result": "marked decrease in relaxivity"}, {"measurement": "% decrease in T1, kidney", "setting": "[3]; [7]", "result": 55.7, "unit": "%"}, {"measurement": "% decrease in T1, liver", "setting": "[3]; [7]", "result": 24.6, "unit": "%"}, {"measurement": "time after which all liver enhancement was lost", "setting": "[3]; rat, in vivo", "result": 50, "unit": "min"}, {"measurement": "T1 (% of control), kidney", "setting": "liver, kidney", "result": 24, "unit": "%"}, {"measurement": "T1 (% of control), liver", "setting": "liver, kidney", "result": 83, "unit": "%"}, {"measurement": "ID50 (total weight), concentration reducing T1 to 50% of buffered saline", "setting": "[1]; 20 MHz, phosphate-buffered saline", "result": 84, "unit": "µg/mL"}, {"measurement": "enhancement of human brain tumors", "setting": "human brain tumors", "result": "almost all human brain tumors undergo significant enhancement"}, {"measurement": "clearance half-time from bloodstream and tumors", "setting": "[4]; in vivo", "result": 20, "unit": "min"}, {"measurement": "sequestered in the kidneys", "setting": "[4]; intravenous", "result": "> 90", "unit": "%"}, {"measurement": "T1 (% of control), in vitro, liver", "setting": "liver, spleen, kidney; control 275 msec", "result": 88, "unit": "%"}, {"measurement": "T1 (% of control), in vitro, spleen", "setting": "liver, spleen, kidney; control 464 msec", "result": 86, "unit": "%"}, {"measurement": "T1 (% of control), in vitro, kidney", "setting": "liver, spleen, kidney; control 492 msec", "result": 25, "unit": "%"}, {"measurement": "time by which contrast was significantly reduced", "setting": "[5]", "result": "≤ 1.5", "unit": "h"}, {"measurement": "changes in liver T1", "setting": "liver", "result": "minimal changes in liver Tl's"}, {"measurement": "% decrease in T1 of spleen", "setting": "spleen", "result": 14.4, "unit": "%"}, {"measurement": "enhancement of BRO melanoma", "setting": "BRO human melanoma; 0.03 mmols Gd per kg", "result": "barely perceptible"}, {"measurement": "dose required for enhancement, higher than 0.03 mmols Gd per kg", "setting": "BRO human melanoma; in vivo", "result": "1/2"}, {"measurement": "T1 (% of control), in vivo, kidney", "setting": "[6]", "result": 57, "unit": "%"}, {"measurement": "T1 (% of control), in vivo, liver", "setting": "[6]", "result": 83, "unit": "%"}]}, {"smiles": "O=[N+]([O-])[O-].O=[N+]([O-])[O-].O=[N+]([O-])[O-].[Fe+3]", "note": "[Ferric nitrate]", "values": [{"measurement": "R1 relaxivity", "setting": "[1]; Table 1, iron compounds", "result": 1.476, "unit": "mmol⁻¹ s⁻¹"}]}]}
